The values that follow come from US20260256822A1, “ENTRY-MODULATING AGENTS AND USES THEREFOR” (priority 2022, published 2026).

Series [1] deals with T1, PfCyRPA (Plasmodium falciparum, UniProt Q8IFM8). Particulars: for affinity of interaction with PfCyRPA: SPR.
Target sequence in this assay (Q8IFM8 29-362): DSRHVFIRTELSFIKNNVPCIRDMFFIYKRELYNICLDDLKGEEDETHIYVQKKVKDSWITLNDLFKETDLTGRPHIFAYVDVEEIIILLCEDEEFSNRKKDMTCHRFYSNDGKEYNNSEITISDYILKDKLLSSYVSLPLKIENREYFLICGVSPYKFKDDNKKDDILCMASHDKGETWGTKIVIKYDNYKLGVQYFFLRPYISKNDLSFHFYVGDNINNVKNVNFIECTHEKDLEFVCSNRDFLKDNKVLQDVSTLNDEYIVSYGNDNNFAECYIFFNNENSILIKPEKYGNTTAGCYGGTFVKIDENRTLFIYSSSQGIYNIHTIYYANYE
Series [2] concerns the target T1, PfCyRPA. The format is binding. Particulars: compound injected first, then 2-6SLN; both at 1 μM.
Target sequence in this assay (Q8IFM8 29-362): as above
A further series relates to P. falciparum 3D7 clone. Put plainly: In vitro blood stage parasite growth inhibition assay, [3H]-hypoxanthine incorporation, human red blood cells. Format: cell-based, Plasmodium falciparum.
Series [3] has as its target T1, PfCyRPA. The experiment in a line: biochemical.
Target sequence in this assay (Q8IFM8 29-362): as above
The target of series [4] is New Delhi metallo-beta-lactamase 2 (NDM2) (Klebsiella pneumoniae, UniProt C7C422, P28A). Particulars: read-out: NDM2 KD; Table 9.
Chain of New Delhi metallo-beta-lactamase 2 (NDM2) (C7C422 29-270 P28A (numbered from the first residue shown)): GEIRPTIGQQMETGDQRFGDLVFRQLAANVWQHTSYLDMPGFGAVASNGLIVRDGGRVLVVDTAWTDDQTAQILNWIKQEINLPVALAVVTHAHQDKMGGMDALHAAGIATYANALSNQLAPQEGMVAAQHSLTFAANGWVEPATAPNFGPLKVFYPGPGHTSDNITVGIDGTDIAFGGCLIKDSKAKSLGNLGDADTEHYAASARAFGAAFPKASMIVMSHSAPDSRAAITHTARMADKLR
The next series addresses PvCyRPA (Plasmodium vivax, UniProt A5K678, A187P/D259E/E126K/E159D/E86Q/G127E/G69A/H95N/K131E/K185E/K93E/Q142K/R122K/T90K). Format: binding. Particulars: Table 12, PvCyRPA.
For series [5] the following is noted: mice, 7 days post infection.
Method: To determine the level of ZnPT in serum a methodology using two ZnPT binding proteins was developed.
(§1) Standard curves were run across the following concentrations: • ZnPT—0.61 nM to 10 μM • PT—61 nM to 1 mM • Zinc—0.61 μM to 10 mM
The conditions of series [6]: for Serum concentration of zinc pyrithione: human.
Method: Participants were instructed to completely wet hair, measure out 20 mL of anti-dandruff shampoo using a measuring cup provided, pour shampoo onto the scalp and massage shampoo into the scalp, leave shampoo on for 5-10 minutes using the timer provided then completely rinse off shampoo. Blood and urine samples were also collected on day 3 (two days of shampoo use), day 4 (three days of shampoo use), day 5 (day after shampoo use stops) and day 10 (five days after shampoo use has stopped). Serum was separated from blood collected in SST II Advance serum separation tubes (BD) according to the manufacturer's instructions. Sera and urine were batched and stored at −80° C. within 4 hours of collection.
as §1
Series [7] addresses T1, PfCyRPA. Particulars: SPR. On the technique in general: In SPR one partner is held on a chip, and binding of the other changes the refractive index at the surface.
Target sequence in this assay (Q8IFM8 26-362): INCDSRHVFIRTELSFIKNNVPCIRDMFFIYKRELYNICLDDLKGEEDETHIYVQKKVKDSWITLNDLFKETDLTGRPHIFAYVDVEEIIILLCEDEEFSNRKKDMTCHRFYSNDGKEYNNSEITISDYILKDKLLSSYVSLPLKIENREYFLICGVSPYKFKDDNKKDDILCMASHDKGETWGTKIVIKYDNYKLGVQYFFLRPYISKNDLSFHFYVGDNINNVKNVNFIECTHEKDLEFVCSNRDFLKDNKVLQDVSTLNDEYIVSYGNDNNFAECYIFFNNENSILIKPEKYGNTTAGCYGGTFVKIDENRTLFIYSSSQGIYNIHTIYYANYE

As a reminder, the Kd is a measure of binding affinity in units of concentration. The term EC50 denotes the concentration that produces a half-maximal response.

Several values for one entry are separate records, joined by “and”; a condition that tells them apart may be missing. Equal entries are not always repeated. Structures can show the parent of a compound that is named as a salt. Where two headings read alike, the source gives them in different places.
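For Serum concentration of zinc pyrithione in this document: human volunteers used 1% ZPT shampoo twice daily for three days from day 2, serum sampled on days 1 (pre-use), 3, 4, 5 and 10.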
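For day of the highest serum concentration of ZnPT in this document: human volunteers used 1% ZPT shampoo twice daily for three days from day 2, serum sampled on days 1 (pre-use), 3, 4, 5 and 10.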

`CO[C@H]1C[C@H](O[C@H]2[C@H](C)O[C@@H](O[C@@H]3/C(C)=C/C[C@@H]4C[C@@H](C[C@]5(C=C[C@H](C)[C@@H](C6CCCCC6)O5)O4)OC(=O)[C@@H]4C=C(C)[C@@H](O)[C@H]5OC/C(=C\C=C\[C@@H]3C)[C@]54O)C[C@@H]2OC)O[C@@H](C)[C@@H]1O` [Doramectin] showed a Kd on PfCyRPA [1] of 7040 ± 2030 nM.

Take `CC(O)C(=O)O.CCOc1ccc2nc3cc(N)ccc3c(N)c2c1` (racemic) [RIVANOL, 6,9-Diamino-2-ethoxyacridine-DL-lactate monohydrate]: the “Blocking of 2-6SLN binding” value at PfCyRPA [2] is recorded as 87.6% ± 9.7. The concentration for a half-maximal effect (EC50) in the series on P. falciparum 3D7 clone (Plasmodium falciparum, 3D7, Erythrocyte, Table 8, human RBC, P. falciparum 3D7, read-out: EC50 in RBC infection) was 0.019 µg/mL and 55.3 nM. In addition, in the series with P. falciparum 3D7 clone (human RBC, monohydrate), the “concentration that completely inhibits P. falciparum infection of human RBCs” value is 100 ng/mL and 291.1 nM. In addition, at PfCyRPA [3], the affinity, expressed as Kd, was 2.46 ± 0.41 nM.

For the compound `O=C1CC2(CCCC2)CC(=O)N1CCCCN1CCN(c2ncccn2)CC1` [Buspirone hydrochloride], the “Blocking of 2-6SLN binding” value on PfCyRPA [2] is 77.4% ± 8.2. The compound further had a Kd on PfCyRPA [3] of 33.6 ± 4.31 nM.

Consider `[O-][n+]1ccccc1S` [Sodium Pyrithione], for which the equilibrium dissociation constant (Kd) was 789000 nM in series [4]; 122000 nM at PfCyRPA [1] (Table 3, PfCyRPA); 122000 nM at PfCyRPA [1] (read-out: CyRPA KD, Table 9).

`COc1ccc(CCC(=O)c2c(O)cc(O[C@@H]3O[C@H](CO)[C@@H](O)[C@H](O)[C@H]3O[C@@H]3O[C@@H](C)[C@H](O)[C@@H](O)[C@H]3O)cc2O)cc1O` [Neohesperidin dihydrochalcone] registered a Kd on PfCyRPA [3] of 24.6 ± 1.45 nM.

Regarding `O=S(=O)([O-])[O-].[Zn+2]` [Zinc, Zinc sulfate], the equilibrium dissociation constant (Kd) in series [4] came out at 317000 nM; on PfCyRPA [1] (Table 3, PfCyRPA), 546000 nM; at PfCyRPA [1] (read-out: CyRPA KD, Table 9), 546000 nM.

At PfCyRPA [3], `CCC(C)(C)C(=O)O[C@H]1C[C@@H](C)C=C2C=C[C@H](C)[C@H](CC[C@@H]3C[C@@H](O)CC(=O)O3)[C@H]21` [Simvastatin] came in with a Kd of 31.4 ± 2.24 nM.

Emamectin displayed a Kd on PfCyRPA [1] of more than 100000 nM.

As for Zinc Pyrithione, the Kd turned out to be 50.8 ± 2.91 nM at PvCyRPA; 38.5 nM in series [4]; 0.833 ± 0.192 nM on PfCyRPA [1]; 0.833 nM at PfCyRPA [1] (Table 3, PfCyRPA); 0.833 nM at PfCyRPA [1] (read-out: CyRPA KD, Table 9). In addition, the “Serum concentration at the point of testing” value in series [5] is given as less than 163 ng/mL. The “Blocking of 2-6SLN binding” value at PfCyRPA [2] is given as 98.2% ± 3.4. The “EC50 in RBC infection” value in the series on P. falciparum 3D7 clone (Table 6, human RBC, P. falciparum 3D7, listed as ZnPT) amounted to 0.163 µg/mL. Further, in the series with P. falciparum 3D7 clone (Table 6, human RBC, P. falciparum 3D7, read-out: EC50 in RBC infection), the half-maximal effective concentration (EC50) is 513 nM. In addition, the “concentration that completely inhibits P. falciparum infection of human RBCs” value in the series with P. falciparum 3D7 clone (human RBC, listed as ZnPT) was 500 ng/mL and 1.57 μM. The “Serum concentration of zinc pyrithione” value in series [6] (Serum 1, Day 1 (before shampoo use)) is given as 0.03 μM ±; in [6] (Serum 1, Day 3, topical 1% ZPT shampoo), 0.04 μM ±; in series [6] (Serum 1, Day 4, topical 1% ZPT shampoo), 0.66 μM ±; in series [6] (Serum 1, Day 5, topical 1% ZPT shampoo) it was 2.7 μM ±; in [6] (Serum 1, Day 10, topical 1% ZPT shampoo), −0.07 μM ±; in series [6] (Serum 2, Day 1 (before shampoo use)) it was 0.02 μM ±. For the same compound, the “Serum concentration of zinc pyrithione” value in series [6] (Serum 2, Day 3, topical 1% ZPT shampoo) is on record as 0.88 μM ±; in series [6] (Serum 2, Day 4, topical 1% ZPT shampoo), 1.8 μM ±; in series [6] (Serum 2, Day 5, topical 1% ZPT shampoo), 4.3 μM ±; in [6] (Serum 2, Day 10, topical 1% ZPT shampoo), 0.33 μM ±; in [6] (Serum 3, Day 1 (before shampoo use)) it was 0.08 μM ±; in [6] (Serum 3, Day 3, topical 1% ZPT shampoo), 0.24 μM ±. In addition, the “Serum concentration of zinc pyrithione” value was 0.84 μM ± in series [6] (Serum 3, Day 4, topical 1% ZPT shampoo); 1.6 μM ± in series [6] (Serum 3, Day 5, topical 1% ZPT shampoo); 1.0 μM ± in [6] (Serum 3, Day 10, topical 1% ZPT shampoo); 0.03 μM ± in [6] (Serum 4, Day 1 (before shampoo use)); 0.81 μM ± in series [6] (Serum 4, Day 3, topical 1% ZPT shampoo); 1.0 μM ± in series [6] (Serum 4, Day 4, topical 1% ZPT shampoo). For the same compound, the “Serum concentration of zinc pyrithione” value in [6] (Serum 4, Day 5, topical 1% ZPT shampoo) is 1.5 μM ±; in [6] (Serum 4, Day 10, topical 1% ZPT shampoo), 1.2 μM ±; in series [6] (Serum 5, Day 1 (before shampoo use)) it was 0.01 μM ±; in series [6] (Serum 5, Day 3, topical 1% ZPT shampoo), 0.02 μM ±; in series [6] (Serum 5, Day 4, topical 1% ZPT shampoo), 0.10 μM ±; in [6] (Serum 5, Day 5, topical 1% ZPT shampoo) it was 0.22 μM ±. Also, the “Serum concentration of zinc pyrithione” value in series [6] (Serum 5, Day 10, topical 1% ZPT shampoo) is given as 0.02 μM ±; in series [6] (Serum 6, Day 1 (before shampoo use)), 0.001 μM ±; in series [6] (Serum 6, Day 3, topical 1% ZPT shampoo), 0.10 μM ±; in series [6] (Serum 6, Day 4, topical 1% ZPT shampoo), 0.21 μM ±; in series [6] (Serum 6, Day 5, topical 1% ZPT shampoo), 0.38 μM ±; in series [6] (Serum 6, Day 10, topical 1% ZPT shampoo), 0.007 μM ±. In addition, the “Serum concentration of zinc pyrithione” value is 0.01 μM ± in series [6] (Serum 7, Day 1 (before shampoo use)); 0.84 μM ± in series [6] (Serum 7, Day 3, topical 1% ZPT shampoo); 0.96 μM ± in [6] (Serum 7, Day 4, topical 1% ZPT shampoo); 1.5 μM ± in series [6] (Serum 7, Day 5, topical 1% ZPT shampoo); 1.2 μM ± in [6] (Serum 7, Day 10, topical 1% ZPT shampoo); 0.02 μM ± in [6] (Serum 8, Day 1 (before shampoo use)). The “Serum concentration of zinc pyrithione” value in series [6] (Serum 8, Day 3, topical 1% ZPT shampoo) was 0.02 μM ±; in [6] (Serum 8, Day 4, topical 1% ZPT shampoo) it was 0.09 μM ±; in series [6] (Serum 8, Day 5, topical 1% ZPT shampoo) it was 0.26 μM ±; in series [6] (Serum 8, Day 10, topical 1% ZPT shampoo) it was 0.11 μM ±; in series [6] (Serum 9, Day 1 (before shampoo use)), 0.04 μM ±; in series [6] (Serum 9, Day 3, topical 1% ZPT shampoo), 0.22 μM ±. Further, the “Serum concentration of zinc pyrithione” value was 0.30 μM ± in series [6] (Serum 9, Day 4, topical 1% ZPT shampoo); 0.49 μM ± in [6] (Serum 9, Day 5, topical 1% ZPT shampoo); 0.14 μM ± in series [6] (Serum 9, Day 10, topical 1% ZPT shampoo); 0.004 μM ± in series [6] (Serum 10, Day 1 (before shampoo use)); 0.15 μM ± in series [6] (Serum 10, Day 3, topical 1% ZPT shampoo); 1.1 μM ± in series [6] (Serum 10, Day 4, topical 1% ZPT shampoo). For the same compound, the “Serum concentration of zinc pyrithione” value in [6] (Serum 10, Day 5, topical 1% ZPT shampoo) is given as 1.5 μM ±; in series [6] (Serum 10, Day 10, topical 1% ZPT shampoo), 0.98 μM ±. Further, the “day of the highest serum concentration of ZnPT” value in series [6] (day after three consecutive days of topical treatment) came out at 5 days. Besides, the “affinity of interaction with PfCyRPA” value on PfCyRPA [1] is recorded as “high affinity interaction”.

Take Abamectin: the Kd at PvCyRPA came out at 1140 ± 230 nM; at PfCyRPA [1], 19.1 ± 1.17 nM. The “Blocking of 2-6SLN binding” value at PfCyRPA [2] is recorded as 91.4% ± 6.8. For the same compound, the “EC50 in RBC infection” value in the series on P. falciparum 3D7 clone (Table 7, human RBC, P. falciparum 3D7) is 0.888 µg/mL. Further, in the series with P. falciparum 3D7 clone (Table 7, human RBC, P. falciparum 3D7, read-out: EC50 in RBC infection), the concentration for a half-maximal effect (EC50) is 1000 nM. The “concentration that completely inhibits P. falciparum infection of human RBCs” value in the series on P. falciparum 3D7 clone (human RBC) is 4000 ng/mL and 4.50 μM.

Regarding `CO/N=C1\C[C@]2(C[C@@H]3C[C@@H](C/C=C(\C)C[C@@H](C)/C=C/C=C4\CO[C@@H]5[C@H](O)C(C)=C[C@@H](C(=O)O3)[C@]45O)O2)O[C@H](/C(C)=C/C(C)C)[C@H]1C` [Moxidectin], the Kd at PfCyRPA [3] turned out to be 13400 ± 521 nM.

`CCC(C)[C@H]1O[C@]2(CC[C@@H]1C)C[C@@H]1C[C@@H](C/C=C(\C)[C@@H](O[C@H]3C[C@H](OC)[C@@H](O[C@H]4C[C@@H](OC)[C@H](O)[C@@H](C)O4)[C@H](C)O3)[C@@H](C)/C=C/C=C3\CO[C@@H]4[C@H](O)C(C)=C[C@@H](C(=O)O1)[C@]34O)O2` (stereo partly drawn) [Ivermectin]: the “Blocking of 2-6SLN binding” value at PfCyRPA [2] is on record as 67.3% ± 4.9. In addition, the EC50 in the series with P. falciparum 3D7 clone (Plasmodium falciparum, 3D7, Erythrocyte, human RBC, Example 6) stood at 0.534 µg/mL; with P. falciparum 3D7 clone (read-out: EC50 in RBC infection, Table 7, human RBC, P. falciparum 3D7) it was 610 nM. Besides, in the series on P. falciparum 3D7 clone (human RBC), the “concentration that completely inhibits P. falciparum infection of human RBCs” value was 2000 ng/mL and 2.29 μM. In addition, the “affinity of interaction with PfCyRPA” value on PfCyRPA [1] is given as “high affinity interaction”. This compound also returned an equilibrium dissociation constant (Kd) on PfCyRPA [3] of 93.2 ± 14 nM.

Take Milbemycin: the dissociation constant (Kd) at PfCyRPA [1] was determined as 967 ± 57 nM.

For the compound “Neu5Ac-α-(2-6)-Gal-β-(1-4)-GlcNAc [α2-6-SLN-Ac]”, the “glycan ligand affinity for PfCyRPA” value on PfCyRPA [7] was “highest affinity ligand”.
